According to patent US20100298141A1, “SUBSTITUTED PYRIDINE N-OXIDE HERBICIDES” (E. I. DU PONT DE NEMOURS AND COMPANY, priority 2007, published 2010):

Tests used:
[1] = test system: wheat; test: Test A pre-/postemergence greenhouse test; type: in vivo, Triticum aestivum; conditions: for Wheat plant response rating: 0 to 100 scale
Summary of the method: (§1)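 Each test compound, dissolved in a non-phytotoxic solvent mixture with surfactant, was sprayed directly onto seeded soil (loam/sand blend) and, at the same moment, onto seedlings carrying one to two leaves. Around ten greenhouse days later, plants were rated visually for injury relative to untreated controls.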

[2] = test system: yellow nutsedge; test: Test C pre-/postemergence test; type: in vivo, Cyperus esculentus
Summary of the method: (§2)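 Test chemicals were formulated with surfactant in a non-phytotoxic solvent and sprayed both on freshly planted seeds (preemergence) and on 1- to 4-leaf plants of 2–18 cm (postemergence). Flooded-paddy pots received compound directly into 3 cm of standing water, maintained for the test.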

[3] = test system: umbrella sedge; test: Test C flooded paddy test; type: in vivo, Cyperus difformis; conditions: Flood
Summary of the method: (§3)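 Compound was added to standing water 3 cm above soil, flood maintained, and plants held in a greenhouse before visual scoring against controls at 13 to 15 days.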

[4] = test system: wheat; test: Test C pre-/postemergence test; type: in vivo, Triticum aestivum
Summary of the method: as §2

[5] = test system: soybean; test: Test C pre-/postemergence test; type: in vivo, Glycine max
Summary of the method: as §2

[6] = test system: bermudagrass; test: Test C pre-/postemergence test; type: in vivo, Cynodon dactylon
Summary of the method: as §2

[7] = test system: giant foxtail; test: Test A pre-/postemergence greenhouse test; type: in vivo, Setaria faberi; conditions: for Plant response rating, Foxtail, Giant: 0 to 100 scale where 0 is no effect and 100 is complete control; for Foxtail, Giant plant response rating: 0 to 100 scale
Summary of the method: as §1

[8] = test system: Goosegrass; test: Test C pre-/postemergence test; type: in vivo, Eleusin indica
Summary of the method: as §2

[9] = test system: pigweed; test: Test C pre-/postemergence test; type: in vivo, Amaranthus retroflexus
Summary of the method: as §2

[10] = test system: barnyardgrass; test: Test C flooded paddy test; type: in vivo, Echinochloa crus-galli; conditions: Flood
Summary of the method: as §3

[11] = test system: common (oilseed) sunflower; test: Test C pre-/postemergence test; type: in vivo, Helianthus annuus
Summary of the method: as §2

[12] = test system: morningglory; test: Test C pre-/postemergence test; type: in vivo, Ipomoea coccinea
Summary of the method: as §2

[13] = test system: Italian ryegrass; test: Test C pre-/postemergence test; type: in vivo, Lolium multiflorum
Summary of the method: as §2

[14] = test system: catchweed bedstraw; test: Test C pre-/postemergence test; type: in vivo, Galium aparine
Summary of the method: as §2

[15] = test system: corn; test: Test A pre-/postemergence greenhouse test; type: in vivo, Zea mays; conditions: for Plant response rating, Corn: 0 to 100 scale where 0 is no effect and 100 is complete control; for Corn plant response rating: 0 to 100 scale
Summary of the method: as §1

[16] = test system: crabgrass; test: Test A pre-/postemergence greenhouse test; type: in vivo, Digitaria sanguinalis; conditions: for Plant response rating, Crabgrass, Large: 0 to 100 scale where 0 is no effect and 100 is complete control; for Crabgrass, Large plant response rating: 0 to 100 scale
Summary of the method: as §1

[17] = test system: morningglory; test: Test A pre-/postemergence greenhouse test; type: in vivo, Ipomoea spp.; conditions: for Plant response rating, Morningglory: 0 to 100 scale where 0 is no effect and 100 is complete control; for Morningglory plant response rating: 0 to 100 scale
Summary of the method: as §1

[18] = Postemergence, 500 g ai/ha, 0 is no effect, 100 is complete control
[19] = Preemergence, 125 g ai/ha, 0 no effect, 100 complete control
[20] = 62 g ai/ha, Preemergence, scale 0 to 100
[21] = 125 g ai/ha, preemergence, scale 0 (no effect) to 100 (complete control)
[22] = Preemergence, 31 g ai/ha, scale 0 to 100 (0 no effect, 100 complete control)
[23] = preemergence, 250 g ai/ha, scale 0 (no effect) to 100 (complete control)
[24] = 62 g ai/ha, scale 0 to 100 (0 no effect, 100 complete control)
[25] = 250 g ai/ha, scale 0 to 100, 0 no effect, 100 complete control, 13 to 15 days

SMILES: Cc1cc[n+]([O-])c(S(=O)(=O)Cc2c(C(F)(F)F)nn(C)c2OCC(F)F)c1 [Compound 94]
- Plant response rating, Wheat ([1]; Postemergence, 125 g ai/ha, 0 to 100 scale where 0 is no effect and 100 is complete control): 60
- Wheat plant response rating [1, 18]: 80
- Wheat plant response rating [1, 19]: 40
- Wheat plant response rating ([1]; Preemergence, 500 g ai/ha, 0 no effect, 100 complete control): 90
- Nutsedge, Yellow plant response rating [2, 20]: 55
- Nutsedge, Yellow plant response rating [2, 21]: 60
- Plant response rating, Nutsedge, Yellow [2, 22]: 0
- Nutsedge, Yellow plant response rating [2, 23]: 98
- Plant response rating, Sedge, Umbrella [3, 24]: 0
- Plant response rating, Sedge, Umbrella [3, 25]: 90
- Wheat plant response rating [4, 20]: 60
- Wheat plant response rating [4, 21]: 80
- Plant response rating, Wheat [4, 22]: 30
- Wheat plant response rating [4, 23]: 80
- Soybean plant response rating [5, 20]: 30
- Soybean plant response rating [5, 21]: 30
- Plant response rating, Soybean [5, 22]: 0
- Soybean plant response rating [5, 23]: 80
- Bermudagrass plant response rating ([6]; 62 g ai/ha, Preemergence, scale 0 to 100 (0 no effect, 100 complete control)): 100
- Bermudagrass plant response rating [6, 21]: 100
- Plant response rating, Bermudagrass [6, 22]: 90
- Bermudagrass plant response rating [6, 23]: 100
- Plant response rating, Foxtail, Giant ([7]; Postemergence, 125 g ai/ha): 50
- Foxtail, Giant plant response rating [7, 18]: 80
- Foxtail, Giant plant response rating [7, 19]: 100
- Plant response rating, Foxtail, Giant ([7]; Preemergence, 500 g ai/ha): 100
- Goosegrass plant response rating [8, 20]: 100
- Goosegrass plant response rating [8, 21]: 100
- Plant response rating, Goosegrass [8, 22]: 95
- Goosegrass plant response rating [8, 23]: 100
- Pigweed plant response rating [9, 20]: 90
- Pigweed plant response rating [9, 21]: 100
- Plant response rating, Pigweed [9, 22]: 60
- Pigweed plant response rating [9, 23]: 100
- Plant response rating, Barnyardgrass [10, 24]: 0
- Plant response rating, Barnyardgrass [10, 25]: 0
- Sunflower plant response rating [11, 20]: 0
- Sunflower plant response rating [11, 21]: 45
- Plant response rating, Sunflower [11, 22]: 0
- Sunflower plant response rating [11, 23]: 80
- Morningglory plant response rating [12, 20]: 90
- Morningglory plant response rating [12, 21]: 98
- Plant response rating, Morningglory [12, 22]: 30
- Morningglory plant response rating [12, 23]: 100
- Ryegrass, Italian plant response rating [13, 20]: 70
- Ryegrass, Italian plant response rating [13, 21]: 90
- Plant response rating, Ryegrass, Italian [13, 22]: 0
- Ryegrass, Italian plant response rating [13, 23]: 98
- Galium plant response rating [14, 20]: 100
- Galium plant response rating [14, 21]: 100
- Plant response rating, Galium [14, 22]: 95
- Galium plant response rating [14, 23]: 100
- Plant response rating, Corn ([15]; Postemergence, 125 g ai/ha): 40
- Corn plant response rating [15, 18]: 80
- Corn plant response rating [15, 19]: 20
- Plant response rating, Corn ([15]; Preemergence, 500 g ai/ha): 70
- Plant response rating, Crabgrass, Large ([16]; Postemergence, 125 g ai/ha): 70
- Crabgrass, Large plant response rating [16, 18]: 90
- Crabgrass, Large plant response rating [16, 19]: 90
- Plant response rating, Crabgrass, Large ([16]; Preemergence, 500 g ai/ha): 100
- Plant response rating, Morningglory ([17]; Postemergence, 125 g ai/ha): 50
- Morningglory plant response rating [17, 18]: 60
- Morningglory plant response rating [17, 19]: 50
- Plant response rating, Morningglory ([17]; Preemergence, 500 g ai/ha): 100
